Experimental data taken from patent US10537100B2, “Substituted methylenedioxybenzyl compounds and their use as synergists” (Endura SPA, priority 2015, dated 2020).

What was measured:
[1] = system: CYP6CM1 from Bemisia tabaci; test: Inhibition of recombinant oxidase enzyme (P450) CYP6CM1, 7-ethoxycoumarin O-deethylation; conditions: for inhibition activity compared with PBO: CYP6CM1, statement in text; for Bemisia tabaci CYPCM1 percentage of activity remaining: recombinant enzyme 50 μL + 3 μL of 10 mM stock in acetone, 10 min incubation, 7-ethoxycoumarin
Experimental: (§1) Ability of the synergists of the invention to inhibit oxidative enzymes (P450), a major mechanism conferring resistance to xenobiotics, was measured using recombinant enzymes corresponding to CYP6CY3 from Myzus persicae and CYP6CM1 from Bemisia tabaci.
(§2) The following synergists were tested in comparison with piperonyl butoxide (PBO): • 5-n-butyl-6-((prop-2-ynyloxy)methyl)benzo[d][1,3]dioxole the compound prepared in Example 2 • 5-n-hexyl-6-((prop-2-ynyloxy)methyl)benzo[d][1,3]dioxole the compound prepared in Example 1 CYP6CM1
Substrate used was 7-ethoxycoumarin for inhibition assays as described by Ulrich and Weber (1972) and adapted to microplate format as described by De Sousa et al. (1995).
For inhibition assays, stock solutions of the compounds of Example 1 and Example 2 (10 mM) were prepared in acetone. Diluted recombinant enzyme (50 μL) was mixed with 3 μL of the above mentioned compound stock solutions, with acetone only used as a control. After 10 min incubation at room temperature, 80 μL of 0.125 mM 7-ethoxycoumarin was added, followed by 10 μL 9.6 mM NADPH (nicotinamide adenine dinucleotide phosphate) in 0.1 M sodium phosphate, pH 7.8, and O-deethylation activity monitored as above. A PBO solution (10 mM) was prepared in the same way as a comparison.

[2] = target: T1, Myzus persicae resistance associated esterase, FE4 (Myzus persicae, UniProt P35502); test: Inhibition of resistance associated esterase FE4, 4-nitrophenyl acetate substrate; type: biochemical; conditions: for inhibition activity compared with PBO: FE4, statement in text; for remaining activity at 10000 µM (stock): purified FE4, 2.5 μL of 10 mM in acetone, 10 min incubation, 4-nitrophenyl acetate 0.8 mM, read-out: Myzus persicae esterases - percentage of the activity remaining FE4
T1 construct: would be utilized for the purified esterases from aphids; from tissue; host or cells: aphids (Myzus persicae)
T1 sequence (P35502 24-564): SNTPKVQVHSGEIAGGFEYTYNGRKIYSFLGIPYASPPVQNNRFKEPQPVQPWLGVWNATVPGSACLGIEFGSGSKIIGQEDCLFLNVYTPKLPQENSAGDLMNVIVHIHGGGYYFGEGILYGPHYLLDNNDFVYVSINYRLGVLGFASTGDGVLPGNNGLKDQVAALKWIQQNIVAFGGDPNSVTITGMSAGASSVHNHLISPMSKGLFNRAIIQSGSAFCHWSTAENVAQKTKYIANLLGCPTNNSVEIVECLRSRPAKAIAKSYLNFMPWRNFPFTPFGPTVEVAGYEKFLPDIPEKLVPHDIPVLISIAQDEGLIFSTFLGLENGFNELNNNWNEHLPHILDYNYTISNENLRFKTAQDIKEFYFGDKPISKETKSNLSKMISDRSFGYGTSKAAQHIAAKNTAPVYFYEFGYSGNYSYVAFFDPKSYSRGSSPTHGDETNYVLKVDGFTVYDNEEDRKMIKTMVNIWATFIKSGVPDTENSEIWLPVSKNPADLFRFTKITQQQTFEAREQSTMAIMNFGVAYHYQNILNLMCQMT
Experimental: It was envisaged, therefore, that the ‘esterase interference assay’ (Khot et al., 2008) would be utilized for the purified esterases from aphids. Various esterase substrates were assessed to find one suitable of monitoring inhibition in an insect homogenate. The Myzus persicae resistance associated esterase, FE4, was used.
Initially the esterase interference assay was carried out, as being the ‘absolute’ protocol for characterising interactions between the compounds of Example 1 and Example 2 and FE4. However, since this is a protracted method, and it would not be applicable for the B. tabaci esterases, a selection of products already reported in the literature were used to compare the interference assay and the use of a model substrate.
From the literature (Philippou et al., 2013) it is known that 1-naphthyl acetate is not suitable for this assay. Instead, 4-nitrophenyl acetate was used. A 10 mM pNA stock was prepared in acetone and added to 0.02 M phosphate buffer pH 7.0 (final concentration 2 mM). The comparison was made with 6 analogues of variable efficacy.
For the assay 10 μL of purified FE4 was diluted to a total volume of 50 μL by the addition of 0.02 M phosphate buffer, pH 7.0 in individual wells of a microplate (maxisorb, NUNC). To each well, 2.5 μL of 10 mM of the compound of Example 1 and of Example 2 in acetone was added and incubated for 10 mins, with acetone only used as a control. Following incubation, 100 μL of 0.02 phosphate buffer, pH 7.0 and 100 μL of 2 mM 4-nitrophenyl acetate was added (final volume in well 250 μL, final substrate concentration 0.8 mM). Enzyme activity was read at 405 nm in a Spectramax Tmax for 5 min, with readings taken every 5 s. The rate (mOD min^−1) was calculated by the integrated software, Softmax Pro v.5.4. A PBO solution (10 mM) was prepared in the same way as a comparison.

[3] = system: CYP6CY3 from Myzus persicae; test: Inhibition of recombinant oxidase enzyme (P450) CYP6CY3, MFC substrate; type: biochemical; conditions: for inhibition activity compared with PBO: CYP6CY3, statement in text; for Myzus persicae CYP6CY3 percentage of activity remaining: recombinant enzyme 50 μL + 3 μL stock in acetone (Examples 1 and 2: 0.1 mM; PBO: 10 mM), 10 min incubation, MFC
Experimental: as §1, §2
For CYP6CY3, 7-ethoxycoumarin was not an appropriate substrate and MFC (7-methoxy-4-trifluoromethylcoumarin) was utilised instead. MFC was dissolved in dimethylsulfoxide to make a 20 mM stock solution and diluted by the addition of 0.1 M sodium phosphate buffer, pH 7.8, to give a concentration of 0.5 mM. Recombinant enzyme (10 μL) was added to separate wells of a microplate as before and diluted to 50 μL with 0.1 M phosphate buffer pH 7.6, followed by the addition of 80 μL of 0.5 mM MFC. The microplate was incubated for 5 min at 30° C., and the reaction was initiated by the addition of 10 μL of 9.6 mM NADPH in 0.1 M sodium phosphate, pH 7.8. Enzyme activity was read in a Spectramax Gemini EM for 60 min, with readings taken every 2 min, using an excitation wavelength of 410 nm and an emission wavelength of 510 nm, with a 495 nm cut-off filter. The rate (FU min^−1) was calculated by the integrated software, Softmax Pro v.5.4. as before.
For inhibition assays, stock solutions of the compounds of Example 1 and 2 (0.1 mM) were prepared in acetone. Dilute recombinant enzyme (50 μL) was mixed with 3 μL of stock solutions, with acetone only used as a control. After 10 min incubation at room temperature, 80 μL of 0.5 mM MFC was added, followed by 10 μL of 9.6 mM NADPH in 0.1 M sodium phosphate, pH 7.8. Enzyme activity remaining was then monitored as above. A PBO solution (10 mM) was prepared in the same way as a comparison.

Structure (SMILES)	inhibition activity compared with PBO [1]	Bemisia tabaci CYPCM1 percentage of activity remaining [1]	inhibition activity compared with PBO [2]	remaining activity at 10000 µM (stock) [2]	inhibition activity compared with PBO [3]	Myzus persicae CYP6CY3 percentage of activity remaining [3]
C#CCOCc1cc2c(cc1CCCC)OCO2 [Compound of Example 2, 5-n-butyl-6-((prop-2-ynyloxy)methyl)benzo[d][1,3]dioxole]	better than PBO	53.48%	better than PBO	28.7%	better than PBO	4.04%
C#CCOCc1cc2c(cc1CCCCCC)OCO2 [Compound of Example 1, 5-n-hexyl-6-((prop-2-ynyloxy)methyl)benzo[d][1,3]dioxole]	better than PBO	85.19%	better than PBO	23.1%	better than PBO	8.51%
